ChEMBL document CHEMBL4024702, “Covalent Modifiers: A Chemical Perspective on the Reactivity of α,β-Unsaturated Carbonyls with Thiols via Hetero-Michael Addition Reactions” (J Med Chem, 2017)

Assays:
[1] = Thiol reactivity of the compound in DMSO/PBS buffer assessed as adduct formation by measuring half life of parent compound by 1H NMR analysis; format: physicochemical
[2] = Thiol reactivity of the compound in PBS/DMSO buffer assessed as pseudo-first order rate constant for adduct formation
[3] = Glutathione reactivity of the compound in acetonitrile to tris-HCL buffer at pH 7.4 by NMR spectroscopic analysis
[4] = DTT reactivity of the compound in acetonitrile to tris-HCL buffer at pH 7.4 by NMR spectroscopic analysis
[5] = Cysteine reactivity of the compound assessed as second order rate constant by 1H NMR analysis
[6] = Cysteamine reactivity of the compound in TRIS-HCL assessed as second order rate constant at 40 uM and pH 7.4
Tetrahymena pyriformis = test: Toxicity in Tetrahymena pyriformis assessed as growth inhibition after 48 hrs
[7] = Glutathione reactivity of the compound in DMSO and phosphate buffer assessed as second order rate constant for adduct formation
MCF7 = test: Cytotoxicity against human MCF7 cells assessed as reduction in cell viability after 96 hrs by SRB asssay; format: functional, cell-based; settings: MCF7, 96 h
HT-29 = test: Cytotoxicity against human HT-29 cells assessed as reduction in cell viability after 96 hrs by SRB asssay; format: functional, cell-based; settings: HT-29, 96 h
518A2 = test: Cytotoxicity against human 518A2 cells assessed as reduction in cell viability after 96 hrs by SRB asssay; format: functional, cell-based; settings: 518A2, 96 h
A549 = test: Cytotoxicity against human A549 cells assessed as reduction in cell viability after 96 hrs by SRB asssay; format: functional, cell-based; settings: A549, 96 h
A-431 = test: Cytotoxicity against human A431 cells assessed as reduction in cell viability after 96 hrs by SRB asssay; format: functional, cell-based; settings: A-431, 96 h
[8] = Thiol reactivity of the compound in PBS buffer assessed as adduct formation at 100 to 200 uM at pH 7.4 by UV-visible spectroscopic analysis
[9] = Glutathione reactivity of the compound in PBS buffer assessed as rate constant for 1,4-adduct formation at pH 7.4
[10] = Cytotoxicity against human H1HeLa cells after 2 days by XTT/PMS dye based assay; format: cell-based, H1-HeLa
rhinovirus B14 [11] = test: Antiviral activity against rhinovirus serotype 14 infected in human H1HeLa cells after 2 days by XTT/PMS dye based assay; format: functional, cell-based; settings: Rhinovirus B, H1-HeLa, 48 h
rhinovirus B14 [12] = test: Irreversible inhibition of human rhinovirus serotype 14 3C protease assessed as ratio of Kobs/I by spectrofluorimetric analysis

N#CC(c1ccncc1)C(SCCO)C1CC1 (centres undefined)
t1/2 [1]: 11.9 min

C=CC(=O)Nc1ccccc1
K [2]: 1.6 ×10⁻⁴ /s

O=C(/C=C/c1ccccc1O)/C=C/c1ccccc1O
Activity [3]: 5 M⁻¹ s⁻¹ | DTT second-order rate constant [4]: 2.5 M⁻¹ s⁻¹

C=C(C)C(=O)O[C@H]1CC2=C[C@@H](C[C@@]3(C)O[C@H]3[C@H]3OC(=O)C(CSC[C@H](N)C(=O)O)[C@@H]31)OC2=O (some centres undefined)
K [5]: 1.7 M⁻¹ s⁻¹

COc1ccc(C(=O)C(C)C(SCCN)c2ccc(OC)c(OC)c2)c(OC)c1 (centres undefined)
K [6]: 0.0075 M⁻¹ s⁻¹

COc1ccc(C(=O)NC/C=C/S(C)(=O)=O)cc1
K [2]: 2.8 ×10⁻³ /s

Cc1csc(C(C#N)C(SCCO)c2ccccc2)n1 (centres undefined)
t1/2 [1]: < 1 min

COc1ccc(C(=O)C(Cl)C(SCCN)c2ccc(OC)c(OC)c2)c(OC)c1 (centres undefined)
K [6]: 1.6 M⁻¹ s⁻¹

COC(=O)/C=C/CNC(=O)c1ccc([N+](=O)[O-])cc1
K [2]: 5.9 ×10⁻⁴ /s

O=C(/C=C/c1ccccc1)/C=C/c1ccccc1
Activity [3]: 0.15 M⁻¹ s⁻¹ | DTT second-order rate constant [4]: 0.42 M⁻¹ s⁻¹

O=C(/C=C/c1ccc(O)cc1)/C=C/c1ccc(O)cc1
Activity [3]: 0.001 M⁻¹ s⁻¹ | DTT second-order rate constant [4]: 0.014 M⁻¹ s⁻¹

C=CC(=O)CCC
EC50 (Tetrahymena pyriformis): 22 µM | K [7]: 1170 M⁻¹ s⁻¹

N#CC(c1ccncc1)C(SCCO)c1ccccc1 (centres undefined)
t1/2 [1]: 4.6 min

C=C1C(=O)O[C@@H]2[C@H]3C(C)=CC[C@@]34O[C@@]4(C)CC[C@@H]12 [ARGLABIN]
IC50 (MCF7): 2.33 µM | IC50 (HT-29): 7 µM | IC50 (518A2): 6.72 µM | IC50 (A549): 2.21 µM | IC50 (A-431): 4.48 µM

N#CC(C(N)=O)C(SCCO)c1ccsc1 (centres undefined)
Kd [8]: 11.9 mM

COc1ccc(C(=O)C(F)C(SCCN)c2ccc(OC)c(OC)c2)c(OC)c1 (centres undefined)
K [6]: 0.017 M⁻¹ s⁻¹

COc1ccc(C(=O)C(c2ccccc2)C(SCCN)c2ccc(OC)c(OC)c2)c(OC)c1 (centres undefined)
K [6]: 0.0067 M⁻¹ s⁻¹

Cc1csc(C(C#N)C(SCCO)C2CC2)n1 (centres undefined)
t1/2 [1]: 4.8 min

C=CS(=O)(=O)Nc1ccc([N+](=O)[O-])cc1
K [2]: 9 ×10⁻³ /s

CC1=CC[C@]23O[C@@]2(C)CC[C@@H]2[C@H](OC(=O)[C@H]2CN(C)C)[C@@H]13
IC50 (MCF7): 1.85 µM | IC50 (HT-29): 10.8 µM | IC50 (518A2): 5.54 µM | IC50 (A549): 1.95 µM | IC50 (A-431): 5.19 µM

CC1OC(O)CC1SC[C@@H](N)C(=O)O (some centres undefined)
K [9]: 25 M⁻¹ s⁻¹

COc1ccc(C(C(=O)c2ccc(OC)cc2OC)C(SCCN)c2ccc(OC)c(OC)c2)cc1 (centres undefined)
K [6]: 0.0086 M⁻¹ s⁻¹

C=C(C)C(=O)OC
EC50 (Tetrahymena pyriformis): 16600 µM | K [7]: 0.072 M⁻¹ s⁻¹

CC1=CC[C@]23O[C@@]2(C)CC[C@@H]2[C@H](OC(=O)[C@H]2CN2CCSCC2)[C@@H]13
IC50 (MCF7): 13.4 µM | IC50 (HT-29): 16.2 µM | IC50 (518A2): 13.2 µM | IC50 (A549): 4.76 µM | IC50 (A-431): 16.9 µM

CCCCCC#CC=O
EC50 (Tetrahymena pyriformis): 19 µM | K [7]: 487 M⁻¹ s⁻¹

O=C/C=C/c1ccccc1
K [6]: 0.64 M⁻¹ s⁻¹

COc1cc(/C=C/C(=O)CC(=O)/C=C/c2ccc(O)c(OC)c2)ccc1O
K [6]: 0.066 M⁻¹ s⁻¹

N#CC(C(N)=O)C(SCCO)c1cccc2[nH]ccc12 (centres undefined)
Kd [8]: 6.2 mM

CC1=CC[C@]23O[C@@]2(C)CC[C@@H]2[C@H](OC(=O)[C@H]2CSc2ccccc2C(=O)O)[C@@H]13
IC50 (MCF7): 16.9 µM | IC50 (HT-29): 17.8 µM | IC50 (518A2): 16.9 µM | IC50 (A549): 10.1 µM | IC50 (A-431): 13.6 µM

C#CC(=O)OCC [PROPYNOIC ACID ETHYL ESTER]
EC50 (Tetrahymena pyriformis): 17 µM | K [7]: 105 M⁻¹ s⁻¹

CS(=O)(=O)/C=C/CNC(=O)c1ccc([N+](=O)[O-])cc1
K [2]: 4 ×10⁻³ /s

C=CC(=O)Nc1ccc(OC)cc1
K [2]: 3.9 ×10⁻⁵ /s

CS(=O)(=O)/C=C/CNC(=O)c1ccccc1
K [2]: 3.9 ×10⁻³ /s

COC(=O)/C=C/CNC(=O)c1ccc(OC)cc1
K [2]: 3.7 ×10⁻⁴ /s

COc1ccc(C(=O)C(c2ccc([N+](=O)[O-])cc2)C(SCCN)c2ccc(OC)c(OC)c2)c(OC)c1 (centres undefined)
K [6]: 0.29 M⁻¹ s⁻¹

CC1=CC[C@]23O[C@@]2(C)CC[C@@H]2[C@H](OC(=O)[C@H]2CSCCO)[C@@H]13
IC50 (MCF7): 17.3 µM | IC50 (HT-29): 18.6 µM | IC50 (518A2): 16.9 µM | IC50 (A549): 12.8 µM | IC50 (A-431): 12.8 µM

COC(=O)/C=C/CNC(=O)c1ccccc1
K [2]: 3.7 ×10⁻⁴ /s

CC(C)C[C@H](NC(=O)OCc1ccccc1)C(=O)N[C@@H](Cc1ccccc1)C(=O)N[C@H](/C=C/C(=O)n1ccc2ccccc21)CCC(N)=O
CC50 at 48 h [10]: 29 µM | EC50 (rhinovirus B14 [11]): 1800 nM | Ratio (rhinovirus B14 [12]): 53000 M⁻¹ s⁻¹

CC(CC=O)SC[C@H](N)C(=O)O (some centres undefined)
K [9]: 8.9 M⁻¹ s⁻¹

CCOC(=O)C(C(=O)c1ccc(OC)cc1OC)C(SCCN)c1ccc(OC)c(OC)c1 (centres undefined)
K [6]: 0.28 M⁻¹ s⁻¹

COc1ccc(C(=O)CC(SCCN)c2ccc(OC)c(OC)c2)c(OC)c1 (centres undefined)
K [6]: 0.19 M⁻¹ s⁻¹

COc1ccc(C(=O)C(C(=O)O)C(SCCN)c2ccc(OC)c(OC)c2)c(OC)c1 (centres undefined)
K [6]: 0.0037 M⁻¹ s⁻¹

N#CC(C(N)=O)C(SCCO)c1c[nH]cn1 (centres undefined)
Kd [8]: 32.8 mM

C=CS(=O)(=O)Nc1ccccc1
K [2]: 7.2 ×10⁻² /s

C=CC(=O)Nc1ccc([N+](=O)[O-])cc1
K [2]: 8 ×10⁻² /s

CC(O)C(CC1NC(C(=O)O)CS1)SC[C@H](C)C(=O)O (some centres undefined)
K [9]: 1.1 M⁻¹ s⁻¹

O=C1/C(=C/c2ccccc2)CC/C1=C\c1ccccc1
Activity [3]: 9.3 M⁻¹ s⁻¹ | DTT second-order rate constant [4]: 2.3 M⁻¹ s⁻¹

CC(=O)N1CC/C(=C\[C@H](CCC(N)=O)NC(=O)[C@H](Cc2ccccc2)NC(=O)[C@H](CC(C)C)NC(=O)OCc2ccccc2)C1=O
CC50 at 48 h [10]: > 100 µM | EC50 (rhinovirus B14 [11]): 710 nM | Ratio (rhinovirus B14 [12]): 156000 M⁻¹ s⁻¹

CC(CC=O)SC[C@H](NC(=O)CC[C@H](N)C(=O)O)C(=O)NCC(=O)O (some centres undefined)
K [9]: 0.78 M⁻¹ s⁻¹

COc1ccc(C(=O)C(I)C(SCCN)c2ccc(OC)c(OC)c2)c(OC)c1 (centres undefined)
K [6]: 0.28 M⁻¹ s⁻¹

CC(C)C[C@H](NC(=O)OCc1ccccc1)C(=O)N[C@@H](Cc1ccccc1)C(=O)N[C@H](/C=C/C(=O)N1CCOC1=O)CCC(N)=O
CC50 at 48 h [10]: > 100 µM | EC50 (rhinovirus B14 [11]): 1600 nM | Ratio (rhinovirus B14 [12]): 600000 M⁻¹ s⁻¹

CCN(CC)c1ccc(C(=O)/C=C/[C@H](CCC(N)=O)NC(=O)[C@H](Cc2ccccc2)NC(=O)[C@H](CC(C)C)NC(=O)OCc2ccccc2)cc1
CC50 at 48 h [10]: 25 µM | EC50 (rhinovirus B14 [11]): > 25000 nM | Ratio (rhinovirus B14 [12]): 4500 M⁻¹ s⁻¹

CS(=O)(=O)c1ccc(-c2cccc(C(SCCO)C(C#N)C(N)=O)c2)cc1 (centres undefined)
Kd [8]: 0.2 mM

CC1=CC[C@]23O[C@@]2(C)CC[C@@H]2[C@H](OC(=O)[C@H]2CN2CCNCC2)[C@@H]13
IC50 (MCF7): 15.1 µM | IC50 (HT-29): 15.1 µM | IC50 (518A2): 15 µM | IC50 (A549): 15.7 µM | IC50 (A-431): 4.4 µM

N[C@@H](CSCCC=O)C(=O)O
K [9]: 220 M⁻¹ s⁻¹

N#Cc1ccc(C(C#N)C(SCCO)c2ccccc2)cc1 (centres undefined)
t1/2 [1]: 8.9 min

NC(=O)CI
K [5]: 25 M⁻¹ s⁻¹

N#CC(C(N)=O)C(SCCO)c1ccc(-n2ccnc2)cc1 (centres undefined)
Kd [8]: 1.3 mM

O=C1/C(=C/c2ccccc2O)CC/C1=C\c1ccccc1O
Activity [3]: 87 M⁻¹ s⁻¹ | DTT second-order rate constant [4]: 29 M⁻¹ s⁻¹

COC(=O)/C=C/[C@H](CCC(N)=O)NC(=O)[C@H](Cc1ccccc1)NC(=O)[C@H](CC(C)C)NC(=O)OCc1ccccc1
CC50 at 48 h [10]: > 320 µM | EC50 (rhinovirus B14 [11]): 1300 nM | Ratio (rhinovirus B14 [12]): 20000 M⁻¹ s⁻¹

N#CC(C(N)=O)C(SCCO)c1ccccc1 (centres undefined)
t1/2 [1]: < 1 min

CC1=CC[C@]23O[C@@]2(C)CC[C@@H]2[C@H](OC(=O)[C@H]2CN2CCCCC2)[C@@H]13
IC50 (MCF7): 16.9 µM | IC50 (HT-29): 8.1 µM | IC50 (518A2): 14.3 µM | IC50 (A549): 4.76 µM | IC50 (A-431): 18.9 µM

C/C=C(\C)C=O [2-methyl-(E)-2-butenal]
EC50 (Tetrahymena pyriformis): 1380 µM | K [7]: 0.474 M⁻¹ s⁻¹

N[C@@H](CCC(=O)N[C@@H](CSCCC=O)C(=O)NCC(=O)O)C(=O)O
K [9]: 120 M⁻¹ s⁻¹

O=C(/C=C/c1ccccc1)c1ccccc1
K [6]: 3 M⁻¹ s⁻¹

C=CS(=O)(=O)Nc1ccc(OC)cc1
K [2]: 2.8 ×10⁻² /s
